According to patent US20250059499A1, “CELL-SURFACE ENGINEERING COMPOSITIONS AND METHODS FOR THE PREVENTION OF IMMUNE REJECTION” (THE UNIVERSITY OF BRITISH COLUMBIA, priority 2021, published 2025):
LPG = linear polyglycerol, Mn 14,900 Da

Key:
[1] = test system: TNF-α activated Ea.hy926 cells co-cultured with IL-2 activated PBMCs; experiment: PBMC-mediated cytotoxicity (LDH assay)
Description: EA.hy 926 monolayers were activated using TNF-α and PBMCs were activated using IL-2 as described in PBMC adhesion experiments. Following activation, PBMC was collected and resuspended in DMEM (Phenol free, 5% FBS, pen/strep). PBMCs were then added to activated EA.hy 926 monolayers (modified and unmodified) to a final concentration of 0.15×10^6 cells/mL and left to incubate at 37° C. and 5% CO2 for 18 hour. After treatment, the supernatant was collected and cell debris was removed through centrifugation. LDH content was measured using LDC cytotoxicity assay (Biovision Inc.™). Cytotoxicity was calculated using the equation below;
where, LDHsample is the amount of LDH released from the sample, LDHPBMC is the amount of LDH released from PBMC samples not subjected to EA.hy 926 monolayers, LDHalive is the amount of LDH released from EA.hy 926 monolayers not subjected to PBMCs, and LDHdead is the amount of LDH released of EA.hy926 monolayers treated with RIPA buffer for 10 minutes at room temperature.

[2] = test system: IL-2 activated PBMCs on TNF-α activated Ea.hy926 monolayers; experiment: PBMC adhesion to endothelial surfaces; format: cell-based, human; conditions: 0.5 mM LPG-Q or 0.56 mM LPG-Q-Sia3Lac
Description: Confluent Ea.hy926 monolayers seeded in a 48 well plate (30,000 cells/well) were activated with TNF-α (2000 U/mL, 3 hours). To obtain PBMCs, EDTA anticoagulated blood from healthy donors was subjected to ficoll density gradient centrifugation Histopaque™-1077 (Sigma Aldrich™). PBMCs were cultured for 24 h in RPMI-1640 containing 10% FBS (v/v), 1000 U/mL recombinant human IL-2 (Cedarlane™)^11 and 1% P/S. Prior to fluorescent labelling, cultured PBMCs were tested for absence of platelets by labelling an aliquot of cells with FITC-labelled anti-human […] (1:200 Beckman Coulter™) and analyzed by flow cytometry (CytoFLEX™, Beckman Coulter™). PBMCs containing <1% platelets were implemented for further study. The PBMC composition was also measured using a hematological analyzer (XN-550™ automated hematology analyzer, Sysmex Canada Inc.™). Following IL-2 treatment the typical composition of the PBMCs were ˜80% lymphocytes, 5% immature granulocytes, 2% basophils and 13% monocytes. […] PMBC adhesion was quantified by lysing the cells with RIPA buffer, spinning at 15,000 g to remove cell debris and measuring the fluorescent intensity of the CMFDA Dye in the lysate (λex/λem=492/517 nm using a plate reader (Spectramax3™, Molecular Devices™).

[3] = test system: Balb/c aortic allograft in C57BL/6 recipient; experiment: Murine aortic interposition grafting, morphological analysis of allograft arteries; format: in vivo, mouse; conditions: day 2 post-transplantation
Description: Murine aortic interposition grafting was performed as described previously.^13,14 Segments of abdominal aorta from Balb/c (H2d) donor mice were excised, flushed with UW solution and then incubated in UW solution alone (containing 5 Mm CaCl2, 0.2 U/Ml gTGase and 3 mM GSH) or UW solution fortified with 0.2 U/mL gtTGase and 0.5 Mm polymer (LPG-Q, LPG-QSia3Lac) for 1 hour at 4° C. Aortic segments were then flushed with saline and interposed into the resected infra-renal aorta of C57BL/6 (H2b) recipient mice.
At day 2, 15 and 42 post-transplantation, grafted artery segments were perfusion fixed with 4% (v/v) paraformaldehyde, excised, and frozen in optimal cutting temperature medium. […] Medial thickness was quantified using ImageJ software (NIH) as described.69 Histological features of acute rejection at day 15 post-transplantation were graded in a blinded manner on a 0-12 scale because acute rejection involves more extensive features of immune reaction and injury compared to day 2 post-transplantation. […] Leukocyte infiltration, medial injury and intimal thickening were each graded on a 0-4 scale and an aggregate score calculated. For evaluation of chronic rejection, intimal thickening at day 42 was quantified by averaging the luminal narrowing in 3 cross-sections per artery that were ˜100, 150 and 200 μm past the suture sites using ImageJ™ software.

Ea.hy926 cells = experiment: Polymer attachment to endothelial cell surface by flow cytometry (BODIPY FL-labelled polymer); format: cell-based
Description: Ea.hy 926 cells at […] confluence were trypsinized and plated in a 96 well plate at 15,000 cells/well. Cells reached 100% confluence at day 3 and allowed to grow for a further 4 days at 37° C. and 5% CO2. Cells were washed twice with cold DPBS and incubated with UW solution freshly supplemented with 3 mM GSH, 5 mM CaCl2, 0.2 […] and 0.5 mM LPG-Q or 0.56 mM glycopolymers ([…]) unless otherwise noted. The solutions were mixed thoroughly and incubated at 4° C. for 30 minutes under static conditions. The cell supernatant was collected and the cells were washed three times with PBS and subjected to further analysis. The assessment of polymer attachment to endothelial cells are assessed by ammonia assay, flow cytometry and polymer mediated cell-surface camouflage of surface proteins. […] To quantify the extent of cell surface engineering, polymers were attached to endothelial surfaces according to the general cell surface engineering procedures outlined in previously using polymer in which 10% were labelled with BODIPY FLTM (ratio of non-labeled polymer: BODIPY labeled polymer=9:1). The cell monolayers were trypsinized and subjected to flow cytometry (CytoFLEXTM, Beckman CoulterTM) in which 10,000 events were acquired and the median fluorescent intensity (MFI) in the 488 channel was recorded.

[4] = test system: Ea.hy926 cells co-cultured with HLA-A2-reactive CAR T cells; format: cell-based; conditions: effector:target 2:1, 1:2 and 1:10, 18 hours
Description: The experiment was performed similar to previously described PBMC/Ea.hy926 co-culture experiments by replacing the effector with CAR-T cells. Ea.hy926 cells were engineered with polymers in UW solution as outlined. Cryopreserved CAR T cells were thawed using standard protocol41 and were pelleted and resuspended in phenol-free DMEM (5% FBS, pen/strep) at an effector (CAR-T cell) to target (Ea.hy926) ratios of 2:1, 1:2 and 1:10 (Vf=100 μL). After 18 hours, supernatants were removed from the wells and PBMCs were removed through centrifugation (300 g×5 minutes) and measured for LDH content to probe cell lysis using an LDH cytotoxicity assay (Biovision Inc.™). CAR-T cell-mediated cytotoxicity was calculated according to Eq. 2 replacing PBMC LDH release with CAR-T cell LDH release. LDH released by Ea.hy926 following 18 hour culture period that have not undergone polymer attachment and cultured in the absence of CAR-T cell is the 100% alive control and LDH released by Ea.hy926 following treatment with RIPA buffer for 10 minutes at ambient temperature is 100% dead control.

“linear polyglycerol glutamine (Ac-GQQQLGGGGG-{LPG}; not fully specified; also: part of the polymer BODIPY FL-labelled in some experiments) [LPG-Q]” was tested, and the “immunosuppression on the cell surface compared with polymer in solution” value [1] was “more potent immunosuppression than LPG-Q-Sia3Lac in solution”, the “PBMC-mediated endothelial cell death, in words” value ([1]; polymer ligated to cell surface) was “suppress PBMC-mediated endothelial cell death” and the “reduction of PBMC adhesion to endothelial cells compared to the control” value [2] was roughly 2.8 fold. For the same substance, the “medial inflammation (graded 0-4)” value [3] was “not demonstrated”, the “LPG-Q attachment versus concentration” value (Ea.hy926 cells; 0.2 mM-3.0 mM, 4° C., 30 minutes, UW solution with gtTGase) was “dose-dependent increase” and the “levels of cell-surface labelling, enzyme-mediated approach compared to succinimidyl succinate amine coupling” value (Ea.hy926 cells; 30 min at 4° C. in UW solution with gtTGase, versus LPG-SS) was roughly 4.4 fold. For the same substance, the “CAR-T cell induced endothelial cell cytotoxicity” value [4] was “reduced endothelial cytotoxicity”.
